What was measured:
[1] = system: oxaliplatin-induced peripheral nerve disorder rats; assay: Repeated intraperitoneal administration, hyperalgesia by oxaliplatin (von Frey test); assay type: in vivo, rat
Procedure: With regard to male SD rats of six weeks age used as the experimental animals, their 50% reaction threshold values to mechanical stimulus and body weights were measured and then the following seven groups each comprising 8 rats was organized. • Normal control group • Onset control group • Prophylactic administration group with 0.25 mg/kg/day of a test drug • Prophylactic administration group with 0.50 mg/kg/day of a test drug • Therapeutic administration group with 0.25 mg/kg/day of a test drug • Therapeutic administration group with 0.50 mg/kg/day of a test drug • Therapeutic administration group with 10 mg/kg/day of pregabalin (positive control)
To the rats of each of the above groups except the normal control group was intraperitoneally administered an oxaliplatin solution dissolved in glucose injection to an extent of 4 mg/mL in a dose of 4 mg/kg twice weekly for four weeks being eight times in total whereupon the oxaliplatin-induced peripheral nerve disorder rats were prepared. To the normal control group, glucose injection was administered similarly.
To prophylactic administration groups of a test drug, a test drug (the compound 4) in a dose of 0.25 mg/kg/day or 0.50 mg/kg/day was repeatedly administered intraperitoneally since immediately after initiation of administration of oxaliplatin until 27 days thereafter. Meanwhile, to a therapeutic administration group of a test drug and to a therapeutic administration group of pregabalin, a test drug (the compound 4) in a dose of 0.25 mg/kg/day or 0.50 mg/kg/day was repeatedly administered intraperitoneally during the period of from 14 days to 27 days after initiation of the administration of oxaliplatin and, pregabalin was administered orally in repeated dose of 10 mg/kg/day during the same period.
A von Frey test was conducted in the same manner as in the above 1.[1](4) using the seven groups of rats mentioned in the above (1). 50% reaction threshold values in each group were measured before initiating the administration of oxaliplatin and after 7, 14, 21, 28, 33 and 40 days from the initiation of the administration. Mean value ± standard error for each group was calculated and the test for significant difference was conducted in the same manner as in the above 1.[1](4).

[2] = system: paclitaxel-induced peripheral nerve disorder rats; assay: Single intraperitoneal administration, hyperalgesia induced by paclitaxel (von Frey test); assay type: in vivo; details: Rattus norvegicus, ip, single i.p. dose 0.3 mg/kg, higher of the values after 1 hour and 5 hours, read-out: Recovery rate of 50% reaction threshold value (%)
Procedure: Male SD rats in six weeks age (one group comprised six rats) were used as experimental animals and the paclitaxel-induced peripheral nerve disorder rats were prepared in the same manner as in the above 1.[1](2). The test drug was administered intraperitoneally in a single dose so as to make it 0.3 mg/kg in any of the cases during the period of 18 to 25 days or 20 to 27 days after initiation of administration of paclitaxel.
A von Frey test was conducted in the same manner as in the above 1.[1](4) using the rats mentioned in the above (1) and each 50% reaction threshold value was measured. With regard to the higher 50% reaction threshold value between the 50% reaction threshold values after 1 hour and 5 hours from administration of a test drug, a recovery rate (%) of the 50% reaction threshold value was calculated.
Recovery rate (%) of 50% reaction threshold value={[(50% reaction threshold value after 1 hour or 5 hours from administration of test drug)−(50% reaction threshold value before administration of test drug)]÷[(Normal threshold value)−(50% reaction threshold value before administration of test drug)]}×100

CCCCCCC/C=C/C(=O)OCC [Compound 4, Trans-2-decenoic acid ethyl ester]
effect of suppressing the hyperalgesia after completion of the repeated administration ([1]; oxaliplatin model, repeated i.p. 0.25 or 0.50 mg/kg/day): still continued | 50% reaction threshold values to the mechanical stimulus vs onset control group ([1]; prophylactic i.p. 0.25 mg/kg/day until 27 days, from 21 days to 28 days after oxaliplatin): significantly high | 50% reaction threshold values to the mechanical stimulus vs onset control group ([1]; prophylactic i.p. 0.5 mg/kg/day until 27 days, from 21 days to 33 days after oxaliplatin): significantly high | 50% reaction threshold values to the mechanical stimulus vs onset control group ([1]; therapeutic i.p. 0.25 mg/kg/day (days 14-27), after 28 days from oxaliplatin): significantly high | 50% reaction threshold values to the mechanical stimulus vs onset control group ([1]; therapeutic i.p. 0.5 mg/kg/day (days 14-27), from 21 days to 33 days after oxaliplatin): significantly high | inhibition in vivo at 0.3 mg/kg [2]: 48.5%

Source: patent US20130296425A1, “PROPHYLACTIC OR THERAPEUTIC AGENT FOR A PERIPHERAL NERVE DISORDER INDUCED BY ANTI-CANCER AGENTS” (NAGOYA INDUSTRIAL SCIENCE RESEARCH INSTITUTE, priority 2011, published 2013)
